Source: patent US20220363680A1, “PROCESSES FOR THE SYNTHESIS OF VALBENAZINE” (Neurocrine Biosciences, Inc., priority 2019, published 2022)

Key:
[1] = Particle size distribution of manufacturing batches of the compound of Formula I; type: physicochemical; conditions: crystalline Form I batches
Text: Manufacturing batches of(2R,3R,11bR)-3-isobutyl-9,10-dimethoxy-2,3,4,6,7,11b-hexahydro-1H-pyrido[2,1-a]isoquinolin-2-yl (S)-2-amino-3-methylbutanoate di(4-methylbenzenesulfonate) (i.e., the compound of Formula I) have been prepared in a similar manner as described herein and have the following particle size distribution characterizations, as shown in Table 3.
Four separate batches of (2R,3R,11bR)-3-Isobutyl-9,10-dimethoxy-2,3,4,6,7,11b-hexahydro-1H-pyrido[2,1-a]isoquinolin-2-yl (S)-2-amino-3-methylbutanoate di(4-methylbenzenesulfonate) were manufactured in a similar manner as described herein (i.e., Example 1) in compliance with applicable cGMPs for GLP use. Certain data are shown below in Table 10 for Example 1, Step E (i.e., Batch 073) and the four batches (i.e., Batches 084, 085, 086, and 087).

[2] = Stability of standard and sample solutions (4 mg/mL) for the HPLC method; type: physicochemical; conditions: 4 mg/mL in DI water:acetonitrile 50:50 v/v, ambient laboratory conditions
Experimental: Diluent (DI Water:Acetonitrile, 50:50, v/v).
Note: Standard solutions are stable for 4 days at ambient laboratory conditions.
Working Standard Solution (4 mg/mL of compound of Formula I).
Note: Sample solutions are stable for 4 days at ambient laboratory conditions.
Sample Solution (4 mg/mL of compound of Formula I).

[3] = Table 3, listed as Batch 073, di(4-methylbenzenesulfonate)
[4] = Table 3, listed as Batch 084, di(4-methylbenzenesulfonate)
[5] = Table 3, listed as Batch 085, di(4-methylbenzenesulfonate)
[6] = Table 3, listed as Batch 086, di(4-methylbenzenesulfonate)
[7] = Table 3, listed as Batch 087, di(4-methylbenzenesulfonate)
[8] = Table 10, listed as Batch 073, di(4-methylbenzenesulfonate)
[9] = Table 10, listed as Batch 084, di(4-methylbenzenesulfonate)
[10] = Table 10, listed as Batch 085, di(4-methylbenzenesulfonate)
[11] = Table 10, listed as Batch 086, di(4-methylbenzenesulfonate)
[12] = Table 10, listed as Batch 087, di(4-methylbenzenesulfonate)

Particle size distribution, D10 ([1]; Table 3): 3 µm | Particle size distribution, D50 [1, 3]: 14 µm | Particle size distribution, D90 [1, 3]: 45 µm | Particle size distribution, D50 [1, 4]: 13 µm | Particle size distribution, D90 [1, 4]: 43 µm | Particle size distribution, D50 [1, 5]: 13 µm | Particle size distribution, D90 [1, 5]: 44 µm | Particle size distribution, D50 [1, 6]: 14 µm | Particle size distribution, D90 [1, 6]: 48 µm | Particle size distribution, D50 [1, 7]: 13 µm | Particle size distribution, D90 [1, 7]: 45 µm | Particle size distribution, D10 ([1]; Table 10): 3 μm | Particle size distribution, D50 [1, 8]: 14 μm | Particle size distribution, D90 [1, 8]: 45 μm | Particle size distribution, D50 [1, 9]: 13 μm | Particle size distribution, D90 [1, 9]: 43 μm | Particle size distribution, D50 [1, 10]: 13 μm | Particle size distribution, D90 [1, 10]: 44 μm | Particle size distribution, D50 [1, 11]: 14 μm | Particle size distribution, D90 [1, 11]: 48 μm | Particle size distribution, D50 [1, 12]: 13 μm | Particle size distribution, D90 [1, 12]: 45 μm | Time for which solutions are stable [2]: 4 days
Structure (SMILES): COc1cc2c(cc1OC)[C@H]1C[C@@H](OC(=O)[C@@H](N)C(C)C)[C@H](CC(C)C)CN1CC2 [Compound of Formula I, (2R,3R,11bR)-3-isobutyl-9,10-dimethoxy-2,3,4,6,7,11b-hexahydro-1H-pyrido[2,1-a]isoquinolin-2-yl (S)-2-amino-3-methylbutanoate di(4-methylbenzenesulfonate)]
